Test [1] has as its target AChE (from Electrophorus electricus) (Electrophorus electricus, UniProt O42275).
In another test the target is T1, BChE (from bovine serum) (Bos taurus, UniProt P32749).
T1 construct: purchased Sigma-Aldrich
Description: BChE inhibitory activity (Ellman method). The conditions noted are these: for IC50: average from three independent experiments ± SEM. It is filed as biochemical.

The mark [2] stands for this setting: Table 2, THQ–isoxazole hybrids 6, read-out: BChE (IC50).
[3] abbreviates: Table 1, THQ–isoxazoline hybrids 5, read-out: IC50 BChE.

SMILES strings stand for the structures. Values joined by “and” are separate entries in the source; they are usually repeats but may differ in a detail not shown here. Equal values may be shown once. Read-outs that look alike come from different tables or passages of the source.

T1 sequence (P32749 29-602): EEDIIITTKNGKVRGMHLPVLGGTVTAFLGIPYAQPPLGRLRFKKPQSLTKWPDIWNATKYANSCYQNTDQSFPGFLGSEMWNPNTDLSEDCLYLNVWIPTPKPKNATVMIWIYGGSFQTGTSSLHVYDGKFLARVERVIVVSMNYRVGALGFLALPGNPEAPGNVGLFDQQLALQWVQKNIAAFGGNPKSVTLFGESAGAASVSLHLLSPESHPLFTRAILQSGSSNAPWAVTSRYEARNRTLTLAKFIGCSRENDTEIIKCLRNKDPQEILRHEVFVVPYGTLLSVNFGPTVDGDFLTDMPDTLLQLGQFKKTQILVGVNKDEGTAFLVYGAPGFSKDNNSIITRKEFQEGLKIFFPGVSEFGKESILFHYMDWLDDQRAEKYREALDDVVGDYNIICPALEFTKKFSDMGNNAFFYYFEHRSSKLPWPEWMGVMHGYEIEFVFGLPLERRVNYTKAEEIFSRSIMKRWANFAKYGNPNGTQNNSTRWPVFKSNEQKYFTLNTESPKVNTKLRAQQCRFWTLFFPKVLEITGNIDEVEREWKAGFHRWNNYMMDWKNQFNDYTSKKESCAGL
Sequence of AChE (from Electrophorus electricus) (O42275 24-633): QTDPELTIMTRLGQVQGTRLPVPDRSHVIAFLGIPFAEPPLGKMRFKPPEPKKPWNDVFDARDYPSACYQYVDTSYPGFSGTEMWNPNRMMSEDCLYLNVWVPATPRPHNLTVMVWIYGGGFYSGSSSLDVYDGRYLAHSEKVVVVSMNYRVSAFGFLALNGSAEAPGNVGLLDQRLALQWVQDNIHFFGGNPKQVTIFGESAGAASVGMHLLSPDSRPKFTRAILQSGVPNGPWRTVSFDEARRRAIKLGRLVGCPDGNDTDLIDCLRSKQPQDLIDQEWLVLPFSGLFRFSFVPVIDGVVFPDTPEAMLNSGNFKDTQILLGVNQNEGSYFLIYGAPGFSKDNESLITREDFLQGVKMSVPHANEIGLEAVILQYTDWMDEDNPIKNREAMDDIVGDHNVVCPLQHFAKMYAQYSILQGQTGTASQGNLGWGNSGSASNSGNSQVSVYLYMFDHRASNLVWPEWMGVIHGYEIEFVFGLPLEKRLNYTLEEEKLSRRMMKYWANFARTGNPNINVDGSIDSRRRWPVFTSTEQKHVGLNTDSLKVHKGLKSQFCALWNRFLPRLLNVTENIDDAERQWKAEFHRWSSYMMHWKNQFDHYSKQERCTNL

For the compound `COc1ccc(C2=NOC(CN3CCC(N4CCCC4=O)c4ccccc43)C2)cc1OC` (centres unmarked) [5c, 3-(3,4-dimethoxyphenyl)-5-[4-((2′-oxopyrrolidin-1′-yl)-3,4-dihydroquinolin-1(2H)-yl)-methyl]-4,5-dihydroisoxazole], the IC50 in test [1] (read-out: IC50 AChE) was 100.65 ± 0.05 µM.

For the compound `COc1ccc(-c2cc(CN3CCC(N4CCCC4=O)c4cc(Cl)ccc43)on2)cc1OC` (centres unmarked) [6n, 5-((6′-chloro-4′-(2′’-oxopyrrolidin-1′’-yl)-3′,4′-dihydroquinolin-1′(2′H)-yl)methyl)-3-(3,4-dimethoxyphenyl)isoxazole], the figures for the IC50 (on BChE (from bovine serum) (setting [2]); in test [1] (read-out: AChE (IC50))) were 24.67 ± 0.01 µM and 8.98 ± 0.01 µM, respectively. The compound further yielded an SI in test [1] of 2.75.

As for `COc1ccc(-c2cc(CN3CCC(N4CCCC4=O)c4cc(OC)ccc43)on2)cc1` (centres unmarked) [6i, 3-(4-methoxyphenyl)-5-((6′-methoxy-4′-(2′’-oxopyrrolidin-1′’-yl)-3′,4′-dihydroquinolin-1′(2′H)-yl)methyl)isoxazole], the IC50 at BChE (from bovine serum) (setting [2]) stood at 213.22 ± 0.01 µM; in test [1] (read-out: AChE (IC50)), 84.51 ± 0.01 µM. Moreover, the SI in test [1] is 2.52.

Consider `COc1ccc(-c2cc(CN3CCC(N4CCCC4=O)c4cc(F)ccc43)on2)cc1` (centres unmarked) [6v, 5-((6′-fluoro-4′-(2′’-oxopyrrolidin-1′’-yl)-3′,4′-dihydroquinolin-1′(2′H)-yl)methyl)-3-(4-methoxyphenyl)isoxazole], for which the IC50 amounted to 83.75 ± 0.01 µM on BChE (from bovine serum) (setting [2]) and 42.48 ± 0.004 µM in test [1] (read-out: AChE (IC50)). Further, the SI in test [1] turned out to be 1.97.

Consider `COc1ccc2c3c1O[C@H]1C[C@@H](O)C=C[C@@]31CCN(C)C2` [Galantamine, galantamine, reference compound], for which the IC50 on BChE (from bovine serum) (setting [3]) and at BChE (from bovine serum) (setting [2]) was 8.8 ± 0.5 µM in each case.

As to `COc1ccc(C2=NOC(CN3CCC(N4CCCC4=O)c4ccccc43)C2)cc1` (centres unmarked) [5b, 3-(4-methoxyphenyl)-5-[4-((2′-oxopyrrolidin-1′-yl)-3,4-dihydroquinolin-1(2H)-yl)-methyl]-4,5-dihydroisoxazole], the half-maximal inhibitory concentration (IC50) at BChE (from bovine serum) (setting [3]) amounted to 65.59 ± 0.006 µM; in test [1] (read-out: IC50 AChE), 95.14 ± 0.08 µM. The SI in test [1] was found to be 0.69.

Turning to `COc1cc(-c2cc(CN3CCC(N4CCCC4=O)c4cc(F)ccc43)on2)cc(OC)c1OC` (centres unmarked) [6x, 5-((6′-fluoro-4′-(2′’-oxopyrrolidin-1′’-yl)-3′,4′-dihydroquinolin-1′(2′H)-yl)methyl)-3-(3,4,5-trimethoxyphenyl)isoxazole], the figures for the half-maximal inhibitory concentration (IC50) (at BChE (from bovine serum) (setting [2]); in test [1] (read-out: AChE (IC50))) were 163.12 ± 0.01 µM and 24.83 ± 0.003 µM, respectively. In addition, the SI in test [1] was 6.57.

Consider `COc1ccc2c(c1)C(N1CCCC1=O)CCN2CC1CC(c2cc(OC)c(OC)c(OC)c2)=NO1` (centres unmarked) [5l, 5-[(6-methoxy-4-(2′-oxopyrrolidin-1′-yl)-3,4-dihydroquinolin-1(2H)-yl)-methyl]-3-(3,4,5-trimethoxyphenyl)-4,5-dihydroisoxazole], for which the IC50 on BChE (from bovine serum) (setting [3]) was determined as 43.67 ± 0.02 µM; in test [1] (read-out: IC50 AChE) it was 109.26 ± 0.01 µM. In test [1], this compound returned an SI of 0.40.

Regarding `COc1ccc2c(c1)C(N1CCCC1=O)CCN2CC1CC(c2ccc(OC)c(OC)c2)=NO1` (centres unmarked) [5k, 3-(3,4-dimethoxyphenyl)-5-[(6-methoxy-4-(2′-oxopyrrolidin-1′-yl)-3,4-dihydroquinolin-1(2H)-yl)-methyl]-4,5-dihydroisoxazole], the IC50 on BChE (from bovine serum) (setting [3]) turned out to be 255.82 ± 0.01 µM. In test [1], the SI is listed as 16.8 and the “selectivity for inhibiting AChE” value is recorded as “significant selectivity”. In addition, the IC50 in test [1] (read-out: IC50 AChE) worked out at 15.26 ± 0.02 µM.

Take `COc1ccc2c(c1)C(N1CCCC1=O)CCN2CC1CC(c2ccccc2)=NO1` (centres unmarked) [5i, 5-[(6-methoxy-4-(2′-oxopyrrolidin-1′-yl)-3,4-dihydroquinolin-1(2H)-yl)-methyl]-3-phenyl-4,5-dihydroisoxazole]: the figures for the IC50 (at BChE (from bovine serum) (setting [3]); in test [1] (read-out: IC50 AChE)) were 146.37 ± 0.03 µM and 82.04 ± 0.11 µM, respectively. Moreover, in test [1], the SI is given as 1.79.

`COc1ccc(C2=NOC(CN3CCC(N4CCCC4=O)c4cc(OC)ccc43)C2)cc1` (centres unmarked) [5j, 3-(4-methoxyphenyl)-5-[(6-methoxy-4-(2′-oxopyrrolidin-1′-yl)-3,4-dihydroquinolin-1(2H)-yl)-methyl]-4,5-dihydroisoxazole]: the IC50 on BChE (from bovine serum) (setting [3]) is 144.71 ± 0.004 µM; in test [1] (read-out: IC50 AChE), 93.66 ± 0.006 µM. Also, the SI in test [1] turned out to be 1.55.

Take `COc1cc(-c2cc(CN3CCC(N4CCCC4=O)c4cc(Br)ccc43)on2)cc(OC)c1OC` (centres unmarked) [6ab, 5-((6′-bromo-4′-(2′’-oxopyrrolidin-1′’-yl)-3′,4′-dihydroquinolin-1′(2′H)-yl)methyl)-3-(3,4,5-trimethoxyphenyl)isoxazole]: the IC50 at BChE (from bovine serum) (setting [2]) amounted to 54.09 ± 0.01 µM; in test [1] (read-out: AChE (IC50)), 148.31 ± 0.004 µM. The same compound yielded an SI in test [1] of 0.36.

As for `COc1ccc2c(c1)C(N1CCCC1=O)CCN2Cc1cc(-c2cc(OC)c(OC)c(OC)c2)no1` (centres unmarked) [6k, 3-(3,4,5-trimethoxyphenyl)-5-((6′-methoxy-4′-(2′’-oxopyrrolidin-1′’-yl)-3′,4′-dihydroquinolin-1′(2′H)-yl)methyl)isoxazole], the IC50 came out at 73.26 ± 0.01 µM on BChE (from bovine serum) (setting [2]) and 20.19 ± 0.02 µM in test [1] (read-out: AChE (IC50)). In addition, in test [1], the SI is reported as 3.63.

Take `CCc1ccc2c(c1)C(N1CCCC1=O)CCN2Cc1cc(-c2ccc(OC)cc2)no1` (centres unmarked) [6r, 5-((6′-ethyl-4′-(2′’-oxopyrrolidin-1′’-yl)-3′,4′-dihydroquinolin-1′(2′H)-yl)methyl)-3-(4-methoxyphenyl)isoxazole]: the IC50 on BChE (from bovine serum) (setting [2]) was < 7.18 µM and 7.18 µM; in test [1] (read-out: AChE (IC50)), 18.83 ± 0.003 µM. The SI in test [1] is 0.38.

As to `COc1ccc(-c2cc(CN3CCC(N4CCCC4=O)c4cc(C)cc(Cl)c43)on2)cc1OC` (centres unmarked) [6f, 5-((8′-chloro-6′-methyl-4′-(2′’-oxopyrrolidin-1′’-yl)-3′,4′-dihydroquinolin-1′(2′H)-yl)methyl)-3-(3,4-dimethoxyphenyl)isoxazole], the IC50 turned out to be 370.12 ± 0.03 µM at BChE (from bovine serum) (setting [2]) and 54.71 ± 0.02 µM in test [1] (read-out: AChE (IC50)). For the same compound, the SI in test [1] is listed as 6.76.

Take `O=C1CCCN1C1CCN(CC2CC(c3ccccc3)=NO2)c2ccc(Cl)cc21` (centres unmarked) [5m, 5-[(6-chloro-4-(2′-oxopyrrolidin-1′-yl)-3,4-dihydroquinolin-1(2H)-yl)-methyl]-3-phenyl-4,5-dihydroisoxazole]: the IC50 was 19.09 ± 0.01 µM on BChE (from bovine serum) (setting [3]) and 30.1 ± 0.01 µM in test [1] (read-out: IC50 AChE). In addition, the SI in test [1] turned out to be 0.63. Further, the “selectivity for inhibiting AChE” value in test [1] is “significant selectivity”.

Consider `Cc1ccc2c(c1)C(N1CCCC1=O)CCN2Cc1cc(-c2ccccc2)no1` (centres unmarked) [6d, 5-((6′-methyl-4′-(2′’-oxopyrrolidin-1′’-yl)-3′,4′-dihydroquinolin-1′(2′H)-yl)methyl)-3-phenylisoxazole], for which the values for the IC50 (at BChE (from bovine serum) (setting [2]); in test [1] (read-out: AChE (IC50))) were 18.51 ± 0.01 µM and 37.84 ± 0.01 µM, respectively. Further, the SI in test [1] amounted to 0.49.

In the case of `COc1ccc(C2=NOC(CN3CCC(N4CCCC4=O)c4cc(Cl)ccc43)C2)cc1OC` (centres unmarked) [5o, 3-(4,5-dimethoxyphenyl)-5-[(6-chloro-4-(2′-oxopyrrolidin-1′-yl)-3,4-dihydroquinolin-1(2H)-yl)-methyl]-4,5-dihydroisoxazole], the values for the IC50 (on BChE (from bovine serum) (setting [3]); in test [1] (read-out: IC50 AChE)) were 83.65 ± 0.01 µM and 13.17 ± 0.02 µM, respectively. In test [1], the SI is on record as 6.35. Besides, the “selectivity for inhibiting AChE” value in test [1] was “significant selectivity”.

For the compound `COc1ccc(-c2cc(CN3CCC(N4CCCC4=O)c4cc(F)ccc43)on2)cc1OC` (centres unmarked) [6w, 5-((6′-fluoro-4′-(2′’-oxopyrrolidin-1′’-yl)-3′,4′-dihydroquinolin-1′(2′H)-yl)methyl)-3-(3,4-dimethoxyphenyl)isoxazole], the IC50 is 46.92 ± 0.01 µM on BChE (from bovine serum) (setting [2]) and 16.83 ± 0.002 µM in test [1] (read-out: AChE (IC50)). Besides, the SI in test [1] came out at 2.79.

As to `COc1ccc(-c2cc(CN3CCC(N4CCCC4=O)c4cc(Br)ccc43)on2)cc1` (centres unmarked) [6z, 3-(4-methoxyphenyl)-5-((6′-bromo-4′-(2′’-oxopyrrolidin-1′’-yl)-3′,4′-dihydroquinolin-1′(2′H)-yl)methyl)isoxazole], the IC50 is < 7.18 µM and 5.81 µM at BChE (from bovine serum) (setting [2]); 12.19 ± 0.005 µM in test [1] (read-out: AChE (IC50)). The compound also returned an SI in test [1] of 0.48.

On to `COc1ccc(C2=NOC(CN3CCC(N4CCCC4=O)c4cc(C)ccc43)C2)cc1OC` (centres unmarked) [5g, 3-(3,4-dimethoxyphenyl)-5-[(6-methyl-4-(2′-oxopyrrolidin-1′-yl)-3,4-dihydroquinolin-1(2H)-yl)-methyl]-4,5-dihydroisoxazole], for which the IC50 turned out to be 31.49 ± 0.005 µM on BChE (from bovine serum) (setting [3]) and 99.71 ± 0.01 µM in test [1] (read-out: IC50 AChE). In addition, in test [1], the SI is recorded as 0.32.

For the compound `O=C1CCCN1C1CCN(Cc2cc(-c3ccccc3)no2)c2ccc(Cl)cc21` (centres unmarked) [6l, 5-((6′-chloro-4′-(2′’-oxopyrrolidin-1′’-yl)-3′,4′-dihydroquinolin-1′(2′H)-yl)methyl)-3-phenylisoxazole], the IC50 at BChE (from bovine serum) (setting [2]) came to 14.11 ± 0.02 µM; in test [1] (read-out: AChE (IC50)) it was 92.01 ± 0.05 µM. For the same compound, the “selectivity against BChE” value on BChE (from bovine serum) (conclusions) was “more selective”. This compound came in with an SI in test [1] of 0.15.

Regarding `COc1cc(-c2cc(CN3CCC(N4CCCC4=O)c4cc(Cl)ccc43)on2)cc(OC)c1OC` (centres unmarked) [6p, 5-((6′-chloro-4′-(2′’-oxopyrrolidin-1′’-yl)-3′,4′-dihydroquinolin-1′(2′H)-yl)methyl)-3-(3,4,5-trimethoxyphenyl)isoxazole], the IC50 at BChE (from bovine serum) (setting [2]) was 46.84 ± 0.01 µM; in test [1] (read-out: AChE (IC50)) it was 41.95 ± 0.11 µM. For the same compound, the SI in test [1] was found to be 1.11.

With `COc1ccc(-c2cc(CN3CCC(N4CCCC4=O)c4ccccc43)on2)cc1` (centres unmarked) [6b, 3-(4-methoxyphenyl)-5-((4′-(2′’-oxopyrrolidin-1′’-yl)-3′,4′-dihydroquinolin-1′(2′H)-yl)methyl)isoxazole], the IC50 was 27.25 ± 0.003 µM at BChE (from bovine serum) (setting [2]) and 42.44 ± 0.01 µM in test [1] (read-out: AChE (IC50)). Besides, the SI in test [1] amounted to 0.64.

Turning to `COc1ccc(-c2cc(CN3CCC(N4CCCC4=O)c4cc(Cl)ccc43)on2)cc1` (centres unmarked) [6m, 5-((6′-chloro-4′-(2′’-oxopyrrolidin-1′’-yl)-3′,4′-dihydroquinolin-1′(2′H)-yl)methyl)-3-(4-methoxyphenyl)isoxazole], the results for the IC50 (on BChE (from bovine serum) (setting [2]); in test [1] (read-out: AChE (IC50))) were 18.42 ± 0.01 µM and 13.27 ± 0.01 µM, respectively. Further, the SI in test [1] was found to be 1.39.

With `CCc1ccc2c(c1)C(N1CCCC1=O)CCN2Cc1cc(-c2cc(OC)c(OC)c(OC)c2)no1` (centres unmarked) [6t, 5-((6′-ethyl-4′-(2′’-oxopyrrolidin-1′’-yl)-3′,4′-dihydroquinolin-1′(2′H)-yl)methyl)-3-(3,4,5-trimethoxyphenyl)isoxazole], the IC50 in test [1] (read-out: AChE (IC50)) came to 66.77 ± 0.01 µM.
